Results reported in US20160193206A1, “BET-PROTEIN-INHIBITING DIHYDROPYRIDOPYRAZINONES” (BAYER PHARMA AKTIENGESELLSCHAFT, priority 2012, published 2016).

Key:
[1] = biological target: T1, BRD4 bromo domain 2 [BRD4(2)] (Homo sapiens, UniProt O60885); assay: BRD4(2)/acetylated peptide H4 binding assay (TR-FRET); settings: inhibition of interaction between His6-tagged BRD4(2) (amino acids 357-445) and acetylated histone H4 peptide
T1 construct: N-terminally His6-tagged BRD4(2) (amino acids 357-445); made in house; host or cells: E. coli
Text: (§1) Protein-Protein Interaction Assay: BRD4/Acetylated Peptide H4 Binding Assay
2. Assay Description for BRD4 Bromo Domain 2 [BRD4(2)]
To assess the BRD4(2) binding strength of the substances described in this application, the ability thereof to inhibit the interaction between BRD4(2) and acetylated histone H4 in a dose-dependent manner was quantified.
(§2) For this purpose, a time-resolved fluorescence resonance energy transfer (TR-FRET) assay was used, which measures the binding between N-terminally His6-tagged BRD4(2) (amino acids 357-445) and a synthetic acetylated histone H4 (Ac-H4) peptide with sequence SGRGK(Ac)GGK(Ac)GLGK(Ac)GGAK(Ac)RHRKVLRDNGSGSK-biotin. The recombinant BRD4(2) protein produced in-house according to Filippakopoulos et al., Cell, 2012, 149:214-231 was expressed in E. coli and purified by means of (Ni-NTA) affinity and (Sephadex G-75) size exclusion chromatography. The Ac-H4 peptide can be purchased, for example, from Biosyntan (Berlin, Germany).
(§3) In the assay, typically 11 different concentrations of each substance (0.1 nM, 0.33 nM, 1.1 nM, 3.8 nM, 13 nM, 44 nM, 0.15 μM, 0.51 μM, 1.7 μM, 5.9 μM and 20 μM) were analysed as duplicates on the same microtitre plate. For this purpose, 100-fold concentrated solutions in DMSO were prepared by serial dilutions (1:3.4) of a 2 mM stock solution into a clear, 384-well microtitre plate (Greiner Bio-One, Frickenhausen, Germany). From this, 50 nl were transferred into a black test plate (Greiner Bio-One, Frickenhausen, Germany). The test was started by the addition of 2 μl of a 2.5-fold concentrated BRD4(2) solution (final concentration typically 100 nM in the 5 μl of reaction volume) in aqueous assay buffer [50 mM HEPES pH 7.5, 50 mM sodium chloride (NaCl); 50 mM potassium fluoride (KF); 0.25 mM CHAPS and 0.05% serum albumin (BSA)] to the substances in the test plate. This was followed by a 10-minute incubation step at 22° C. for the pre-equilibration of putative complexes between BRD4(2) and the substances.
(§4) The mixture was then incubated in the dark at 22° C. for one hour and then at 4° C. for at least 3 hours and for no longer than overnight. The formation of BRD4(2)/Ac-H4 complexes was determined by the measurement of the resonance energy transfer from the streptavidin-Eu chelate to the anti-6His-XL665 antibody present in the reaction. For this purpose, the fluorescence emission was measured at 620 nm and 665 nm after excitation at 330-350 nm in a TR-FRET measuring instrument, for example a Rubystar or Pherastar (both from BMG Lab Technologies, Offenburg, Germany) or a Viewlux (Perkin-Elmer). The ratio of the emissions at 665 nm and at 622 nm was taken as an indicator of the amount of BRD4(2)/Ac-H4 complexes formed.
(§5) The data (ratios) obtained were normalized, with 0% inhibition corresponding to the mean from the measurements for a set of controls (typically 32 data points) in which all the reagents were present. In these, in place of test substances, 50 nl of DMSO (100%) were used. Inhibition of 100% corresponded to the mean from the measurements for a set of controls (typically 32 data points) in which all the reagents except BRD4(2) were present. The IC50 was determined by regression analysis based on a 4-parameter equation (minimum, maximum, IC50, Hill; Y=max+(min−max)/(1+(X/IC50)Hill).

[2] = biological target: T2, BRD4 bromo domain 1 [BRD4(1)] (Homo sapiens, UniProt O60885); assay: BRD4(1)/acetylated peptide H4 binding assay (TR-FRET); settings: inhibition of interaction between His6-tagged BRD4(1) (amino acids 67-152) and acetylated histone H4 peptide
T2 construct: N-terminally His6-tagged BRD4(1) (amino acids 67-152); made in house; host or cells: E. coli
Text: as §1
1. Assay Description for BRD4 Bromo Domain 1 [BRD4(1)]
To assess the BRD4(1) binding strength of the substances described in this application, the ability thereof to inhibit the interaction between BRD4(1) and acetylated histone H4 in a dose-dependent manner was quantified.
as §2, with “BRD4(1)” for “BRD4(2)”, “67-152)” for “357-445)”, “GRGK(Ac)GGK(Ac)GLGK(Ac)GGAK(Ac)RHGSGSK-biotin.” for “SGRGK(Ac)GGK(Ac)GLGK(Ac)GGAK(Ac)RHRKVLRDNGSGSK-biotin.”
as §3, with “concentrated BRD4(1)” for “concentrated BRD4(2)”, “typically 10” for “typically 100”, “chloride (NaCl),” for “chloride (NaCl); 50 mM potassium fluoride (KF);”, “between BRD4(1)” for “between BRD4(2)”
as §4, with “BRD4(1)/Ac-H4” for “BRD4(2)/Ac-H4”, “cryptate” for “chelate”
as §5, with “BRD4(1)” for “BRD4(2)”

Row | Structure (SMILES) | IC50 [1] [nM] | IC50 [2] [nM]
1 | CC(C)N1CCN(S(=O)(=O)c2ccc(Nc3ccc4c(n3)N(C3CCOCC3)[C@H](C)C(=O)N4C)cc2)CC1 [Example 16, (3R)-1,3-Dimethyl-6-[(4-{[4-(propan-2-yl)piperazin-1-yl]sulphonyl}phenyl)amino]-4-(tetrahydro-2H-pyran-4-yl)-3,4-dihydropyrido[2,3-b]pyrazin-2(1H)-one] | 212 | 286
2 | C[C@@H]1C(=O)N(C)c2ccc(Nc3ccc(S(=O)(=O)NCCc4cccnc4)cc3)nc2N1C1CCOCC1 [Example 19, 4-{[(3R)-1,3-dimethyl-2-oxo-4-(tetrahydro-2H-pyran-4-yl)-1,2,3,4-tetrahydropyrido[2,3-b]pyrazin-6-yl]amino}-N-[2-(pyridin-3-yl)ethyl]benzene-sulphonamide] | 185 | 219
3 | C[C@@H]1C(=O)N(C)c2ccc(Nc3ccc(C(=O)N4CC5(CCS5(=O)=O)C4)cc3)nc2N1C1CCCCC1 [Example 29, (3R)-4-Cyclohexyl-6-({4-[(1,1-dioxido-1-thia-6-azaspiro[3.3]hept-6-yl)carbonyl]phenyl}amino)-1,3-dimethyl-3,4-dihydropyrido[2,3-b]pyrazin-2(1H)-one] | 149 | 242
4 | C[C@@H]1C(=O)N(C)c2ccc(Nc3ccc(C(=O)NCc4ccccn4)cc3)nc2N1C1CCOCC1 [Example 35, 4-{[(3R)-1,3-Dimethyl-2-oxo-4-(tetrahydro-2H-pyran-4-yl)-1,2,3,4-tetrahydropyrido[2,3-b]pyrazin-6-yl]amino}-N-(pyridin-2-ylmethyl)benzamide] | 237 | 119
5 | Cc1cc(C(=O)N2CCN(C)CC2)ccc1Nc1ccc2c(n1)N(C1CCOCC1)[C@H](C)C(=O)N2C [Example 36, (3R)-1,3-Dimethyl-6-({2-methyl-4-[(4-methylpiperazin-1-yl)carbonyl]phenyl}amino)-4-(tetrahydro-2H-pyran-4-yl)-3,4-dihydropyrido[2,3-b]pyrazin-2(1H)-one] | 245 | 257
6 | COc1cc(C(=O)NC2CCN(C(C)=O)CC2)ccc1Nc1ccc2c(n1)N(C1CCCCC1)[C@H](C)C(=O)N2C [Example 39, N-(1-Acetylpiperidin-4-yl)-4-{[(3R)-4-cyclohexyl-1,3-dimethyl-2-oxo-1,2,3,4-tetrahydropyrido[2,3-b]pyrazin-6-yl]amino}-3-methoxybenzamide] | 145 | 329
7 | COc1cc(C(=O)N2CCN(C(C)C)CC2)ccc1Nc1ccc2c(n1)N(C1CCCCCC1)[C@H](C)C(=O)N2C [Example 40, (3R)-4-Cycloheptyl-6-[(2-methoxy-4-{[4-(propan-2-yl)piperazin-1-yl]carbonyl}phenyl)amino]-1,3-dimethyl-3,4-dihydropyrido[2,3-b]pyrazin-2(1H)-one] | 161 | 295

These reach a lower IC50 [1]. Values come first.

Row | IC50 [1] [nM] | IC50 [2] [nM] | Structure (SMILES)
8 | 116 | 195 | COc1cc(C(=O)N2CCN(C(C)C)CC2)ccc1Nc1ccc2c(n1)N(C1CCCCC1)[C@H](C)C(=O)N2C [Example 28, (3R)-4-Cyclohexyl-6-[(2-methoxy-4-{[4-(propan-2-yl)piperazin-1-yl]carbonyl}phenyl)amino]-1,3-dimethyl-3,4-dihydropyrido[2,3-b]pyrazin-2(1H)-one]
9 | 111 | 104 | COc1cc(C(=O)NC2CCN(C)CC2)ccc1Nc1ccc2c(n1)N(C1CCCCC1)[C@H](C)C(=O)N2C [Example 12, 4-{[(3R)-4-Cyclohexyl-1,3-dimethyl-2-oxo-1,2,3,4-tetrahydropyrido[2,3-b]pyrazin-6-yl]amino}-3-methoxy-N-(1-methylpiperidin-4-yl)benzamide]
10 | 111 | 308 | C[C@@H]1C(=O)N(C)c2ccc(Nc3ccc(S(=O)(=O)N(C)C)cc3)nc2N1C1CCCCC1 [Example 17, 4-{[(3R)-4-Cyclohexyl-1,3-dimethyl-2-oxo-1,2,3,4-tetrahydropyrido[2,3-b]pyrazin-6-yl]amino}-N,N-dimethylbenzenesulphonamide]
11 | 108 | 241 | CC(C)N1CCN(C(=O)c2ccc(Nc3ccc4c(n3)N(C3CCCCC3)[C@H](C)C(=O)N4C)cc2)CC1 [Example 31, (3R)-4-Cyclohexyl-1,3-dimethyl-6-[(4-{[4-(propan-2-yl)piperazin-1-yl]carbonyl}phenyl)amino]-3,4-dihydropyrido[2,3-b]pyrazin-2(1H)-one]
12 | 80 | 329 | C[C@@H]1C(=O)N(C)c2ccc(Nc3ccc(C(=O)N4CC5(CCS5(=O)=O)C4)cc3)nc2N1C1CCCCCC1 [Example 33, (3R)-4-Cycloheptyl-6-({4-[(1,1-dioxido-1-thia-6-azaspiro[3.3]hept-6-yl)carbonyl]phenyl}amino)-1,3-dimethyl-3,4-dihydropyrido[2,3-b]pyrazin-2(1H)-one]
13 | 77 | 376 | COc1cc(C(=O)N2CC3(COC3)C2)ccc1Nc1ccc2c(n1)N(C1CCCCCC1)[C@H](C)C(=O)N2C [Example 32, (3R)-4-Cycloheptyl-6-{[2-methoxy-4-(2-oxa-6-azaspiro[3.3]hept-6-ylcarbonyl)phenyl]amino}-1,3-dimethyl-3,4-dihydropyrido[2,3-b]pyrazin-2(1H)-one]
